The record followed here is patent publication US20130035232A1, “INDUCTION AND STABILIZATION OF ENZYMATIC ACTIVITY IN MICROORGANISMS” (GEORGIA STATE UNIVERSITY RESEARCH FOUNDATION, INC., priority 2010, published 2013).

Assay [1] deals with amidase. The assay is described as follows: Amidase induction by inducers (Example 1). The class given is cell-based, Rhodococcus sp., strain DAP 96253. As to the method: The induction of nitrile hydratase activity and amidase activity in Rhodococcus sp., strain DAP 96253, was evaluated using multiple types of inducers (1000 ppm). Three different samples were cultured in YEMEA medium containing 10 ppm cobalt and 7.5 g/L urea and supplemented with acrylonitrile, asparagine, or glutamine. The specific nitrile hydratase activity and the specific amidase activity in each sample was evaluated, and the results are provided below in Table 3, with activities provided in units/mg cdw (cell dry weight). One unit of nitrile hydratase activity relates to the ability to convert 1 μmol of acrylonitrile to its corresponding amide per minute, per milligram of cells (dry weight) at a pH of 7.0 and a temperature of 30° C. One unit of amidase activity relates to the ability to convert 1 μmol of acrylamide to its corresponding acid per minute, per milligram of cells (dry weight) pH of 7.0 and a temperature of 30° C.

A further assay relates to nitrile hydratase. The assay is described as follows: Nitrile hydratase production on supplemented medium. The class given is cell-based. The settings on record: YEMEA, urea, cobalt, supplement 3.8 mM. The protocol:
The induction of nitrile hydratase production and amidase production in various nitrile hydratase producing microorganisms was evaluated. All strains were grown on YEMEA medium containing 7.5 g/L of urea and 10 ppm cobalt (provided as cobalt chloride) supplemented with asparagine (ASN), glutamine (GLN), or both asparagine and glutamine. The asparagine and glutamine were added at a concentration of 3.8 mM. As a comparative, enzyme production with no supplementation was also tested. Growth temperature was in the range of 26° C. to 30° C.

Assay [2] relates to amidase. In words: 20 liter fermentation with asparagine feed: amidase. Type of assay: cell-based, Rhodococcus sp. DAP 96253. The settings on record: end of 20 liter fermentation; asparagine 0.15M at 1000 μl/min from t=10 hour. As to the method: Rhodococcus sp. DAP 96253 were grown using biphasic medium as the source of inoculum for a 20 liter fermentation. The supplemental addition of medium/carbohydrate (either YEMEA, dextrose or maltose) was made to the modified R2A medium, containing cottonseed hydrolysate substituted for the Proteos Peptone 3 (PP3). Asparagine (0.15M solution) was added at a continuous rate of 1000 μl/min beginning at t=10 hour. At the end of the fermentation run, 159 units per milligram cell dry weight of acrylonitrile specific nitrile hydratase, 22 units of amidase per milligram cell dry weight, and 16 g/l cell packed wet weight were produced.

In the case of `NC(=O)C[C@H](N)C(=O)O` [Asparagine, asparagine], in the assay with amidase [1] (Rhodococcus sp. DAP 96253, YEMEA, 10 ppm cobalt, 7.5 g/L urea, inducer 1000 ppm), the “Amidase Activity” value is on record as 13.24 Units/mg cdw. Besides, in the assay with amidase [1] (relative to acrylonitrile as inducer, 1000 ppm), the “amidase activity greater than that resulting from acrylonitrile” value is listed as “approximately 74%”. Also, the “Nitrile Hydratase Level Based on Growth Medium Supplementation” value with nitrile hydratase (Brevibacterium ketoglutaricum ATCC 21533, 30 °C) is given as 30 Units/mg cdw; in the assay with nitrile hydratase (Pseudomonas chloroaphis ATCC 13985, 26 °C), 14 Units/mg cdw; with nitrile hydratase (Pseudomonas chloroaphis ATCC 43051, 30 °C) it was 28 Units/mg cdw; in the assay on nitrile hydratase (Rhodococcus erythropolis ATCC 47072, 26 °C) it was 48 Units/mg cdw; with nitrile hydratase (Rhodococcus rhodochrous DAP 96622 ATCC 55898, 26 °C), 158 Units/mg cdw; in the assay with nitrile hydratase (Rhodococcus sp. DAP 96253 ATCC 55899, 30 °C), 155 Units/mg cdw. The amidase produced in the assay on amidase [2] is 22 units per milligram cell dry weight.
